Measured values reported in paper PMC3183052, “Immunoprotectivity of HLA-A2 CTL Peptides Derived from Respiratory Syncytial Virus Fusion Protein in HLA-A2 Transgenic Mouse” (PLoS ONE, 2011).

Legend:
splenocytic CD4+ T cells = assay: CFSE proliferation of CD4+ T cells after in vitro peptide restimulation; type: cell-based, mouse; conditions: mice immunized s.c. twice with 50 µg peptide in IFA; splenocytes restimulated with 10 µg/mL peptide for 8 days
Description: (§1) To screen the immunodominance of epitopic peptide in the induction of RSV-F specific Th1/Th2 expression, HLA-A*0201 transgenic C57BL/6 mice were anesthetized with isoflurane and immunized with 1×10^7 pfu/50 µL of rAd-F0 or rAd-LacZ or 1×10^4 live RSV B1 via the intranasal (i.n.) route. Twenty days later, the mice were given booster immunization i.n. with the same dose. After 10 days of boost, mice were sacrificed and splenocytes were isolated for the cytokine ELISPOT assay. […] Mice body weight was monitored daily.
(§2) The splenocytes were isolated, labeled with 5-(6)-carboxyfluorescein diacetate succinimidyl ester (CFSE) (Sigma-Aldrich) and stimulated in vitro with 10 µg/mL of the synthetic peptides for 4 or 8 days. Proliferation of splenocytic CD4^+ and CD8^+ T cells was analyzed by flow cytometry (BD FACSCalibur) using PE-Cy5-labeled specific antibody against CD4 (eBioscience) or CD8 (eBioscience), respectively. Cell division index (CDI), a ratio of CFSE-diluted CD4^+ or CD8^+ T cells stimulated by peptide to CFSE-diluted unstimulated CD4^+ or CD8^+ T cells, was calculated as shown below; [drawing 1] […]
(§3) Figure 2 Epitope-specific CD4^+ and CD8^+ T-cell activation in peptide-immunized HLA-A*0201 transgenic mice. […] Proliferation of CD4^+ (A) or CD8^+ (B) lymphocytes in response to the different CD8 epitopes was analyzed by flow cytometry using anti-CD4 or CD8 antibodies conjugated with PE-Cy5. […]

[1] = system: splenocytes from HLA-A*0201 transgenic C57BL/6 mice; assay: IFN-γ ELISPOT of splenocytes restimulated with peptide; type: cell-based, mouse; conditions: restimulated with 2 µg peptide, representative of two experiments, five mice per group
How it was run: (§4)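 HLA-A*0201 transgenic C57BL/6 mice primed and boosted intranasally 20 days apart with 1×10^7 pfu rAd-F0 or 1×10^4 live RSV B1; splenocytes taken 10 days post-boost. Splenocytes restimulated 48 h at 37°C with 2 µg individual RSV F 9-mer peptides; spots counted, expressed per 5×10^5 splenocytes.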

splenocytic CD8+ T cells = assay: CFSE proliferation of CD8+ T cells after in vitro peptide restimulation; type: cell-based, mouse; conditions: mice immunized s.c. twice with 50 µg peptide in IFA; splenocytes restimulated with 10 µg/mL peptide for 8 days
Description: as §1, §2, §3

HLA-A*0201 = biological target: T1, HLA-A*0201 (Homo sapiens, UniProt P04439, D140Y/D185E/D98H/E176V/E277Q/G131W/G231S/I119V/I121R/I166T/I218V/L300P/L318F/N151K/N90K/P208A/P217A/Q86G/Q94H/R138H/R169H/T345S); assay: T2 cell-stabilization assay (T2-binding); conditions: T2 cells 5×10^5, peptide 50 µg/mL + β2-microglobulin 5 µg/mL, 28°C 16–18 h, then brefeldin A 10 µg/mL 37°C 3 h; FITC anti-HLA-A2, flow cytometry; MFI relative to negative control HCV C55-74 (set as 1)
T1 construct: Human T2 cells (purchased from the American Type Culture Collection, ATCC) (ATCC No. CRL-1992) expressing the HLA-A*0201 gene; endogenous in cells; host or cells: human T2 cells (ATCC CRL-1992)
How it was run: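 T2 cells were pulsed with 9-mer peptides (50 µg/mL) plus β2-microglobulin (5 µg/mL) at 28°C for 16–18 hours, then brefeldin A (10 µg/mL) at 37°C for 3 hours. Surface HLA-A2 was stained with FITC anti-HLA-A2 and read by flow cytometry. Binding is MFI relative to T2 cells loaded with HCV peptide C55-74 (MFI = 1).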

[2] = system: splenocytes from HLA-A*0201 transgenic C57BL/6 mice; assay: IL-2 ELISPOT of splenocytes restimulated with peptide; type: cell-based, mouse; conditions: restimulated with 2 µg peptide, representative of two experiments, five mice per group
How it was run: as §4

[3] = splenocytes of HLA-Tg B6 mice primed and boosted i.n. with 10^4 pfu RSV-B1
[4] = splenocytes of HLA-Tg B6 mice primed and boosted i.n. with 10^7 pfu rAd-F0

Sequence: KIMTSKTDV [peptide 17, HLA-A*0201-restricted 9-mer synthetic peptide from F protein of RSV-B1 strain]
- proliferation of CD4+ T cells (cell division index) (splenocytic CD4+ T cells): insignificant proliferation
- IFN-γ ELISPOT, RSV [1, 3]: 2.5 cytokine-secreting cells per 5×10^5 splenocytes
- IFN-γ ELISPOT, rAd-F0 [1, 4]: 24.5 cytokine-secreting cells per 5×10^5 splenocytes
- proliferation of CD8+ T cells (cell division index) (splenocytic CD8+ T cells): could not induce proliferation
- T2-binding Ratio of MFI (HLA-A*0201): 0.95
- IL-2 ELISPOT, RSV [2, 3]: 6.5 cytokine-secreting cells per 5×10^5 splenocytes
- IL-2 ELISPOT, rAd-F0 [2, 4]: 24.5 cytokine-secreting cells per 5×10^5 splenocytes
